{"source": "patent US20140256793A1", "about": "“MEDICAMENT FOR DISEASES ASSOCIATED WITH AMYLOID beta AND SCREENING THEREOF” (National University Corporation Hokkaido University, priority 2011, published 2014)", "key": {"[1]": {"test_system": "BV-2 cells or primary cultured microglia", "experiment": "Fluorescence staining and internalization assay of PKH26-labeled exosomes", "type": "cell-based, murine"}, "[2]": {"test_system": "BV-2 cells or primary cultured microglia", "experiment": "Aβ42 uptake into microglia (ELISA)", "type": "cell-based, murine"}, "[3]": {"test_system": "N2a cells", "experiment": "Measurement of exosome release from N2a cells after siRNA, C6-ceramide or bacterial SMase treatment (Western blot)", "type": "cell-based, murine", "settings": "for exosome release / secretion after siRNA knockdown: Stealth RNAi siRNA, Western blot of exosome markers; for ratio of amount of Alix compared with a control: siRNA knockdown, exosome fraction", "method": "(§1) As previously described (Thery C et al., Curr Protoc Cell Biol Chapter: Unit 3.22 (2006)), exosomes were prepared from culture supernatants of N2a and murine primary cultured cortical nerve cells. The culture medium was replaced with a serum-free medium on the day before the preparation of exosomes. The cell culture supernatants were collected after 24 hours and sequentially centrifuged at 3,000×g for 10 minutes, at 4,000×g for 10 minutes, and at 10,000×g for 30 minutes to remove cells, dead cells, and cell fragments, and then spun down again at 100,000×g for one hour to obtain exosomes as pellets.\n(§2) Treatment with imipramine (10 μM), GW4869 (10 μM), D609 (50 μM) C6-ceramide (50 μM) or bacterial SMase (100 μU/ml) was performed for 24 hours in a serum-free medium.\nFor RNA-mediated interference (RNAi) experiments, the inventors used Stealth RNAi™ siRNA (Invitrogen) with the following sequences:\nStealth™ Control RNA was obtained from Invitrogen SiRNA was delivered according to the manufacturer's protocol by using a Lipofectamine™ transfection reagent (Invitrogen).\n(§3) Exosome pellets purified from cultures of 5×10^6 cells were solubilized with Laemmli buffer (Laemmli U K, Nature (1970) 227: 680-685) and subjected to SDS-PAGE and Western blotting. Blots were probed with a primary antibody and then probed with an HRP-conjugated secondary antibody. Bands were detected and analyzed using a combination of an ECL Plus kit (GE Healthcare) and an LAS4000 (Fujifilm Corporation)."}, "[4]": {"test_system": "N2a-APP cells", "experiment": "Western blot of 100,000×g pellets from media of N2a-APP cells transfected with siRNA", "type": "cell-based, murine", "settings": "for levels of released exosomes, estimated by the amounts of Alix and Tsg101: siRNA knockdown", "method": "as §3\n(§4) N2a cells were cultured on 24-well plate inserts (0.5 μm pore, Costar) at 5×10^5 cells/cm^2 and then transfected with the APP770 plasmid simultaneously with siRNA for nSMase2 or SMS2 by using a Lipofectamine-2000. After 24 hours from the transfection, inserts were placed onto wells containing BV-2 cells. After an additional 24 hours of incubation, Aβ levels in the medium were measured by ELISA. Intracellular Aβ levels in BV-2 cells were also measured using ELISA after solubilization in guanidine HCl buffer as described above."}, "[5]": {"test_system": "N2a cells and BV-2 cells", "experiment": "Transwell experiment: N2a-APP cells with BV-2 cells, Aβ levels by ELISA", "type": "cell-based, murine", "settings": "for extracellular Aβ levels: no BV-2 cells on the lower wells, N2a-APP cells treated with siRNA", "method": "Aβ40 and Aβ42 levels were measured by using a sandwich enzyme-linked immunosorbent assay (ELISA) kit from Wako. Aggregated Aβs both in medium and cells were solubilized with 4 M guanidine-HCl buffer for 2 hours at room temperature and then were subjected to ELISA. All samples were measured in duplicates.\nas §4"}, "[6]": {"test_system": "Aβ", "experiment": "Thioflavin T test of Aβ amyloid fibril formation with exosomes", "type": "biochemical, human", "settings": "exosomes from inhibitor- or siRNA-treated cells mixed with 25 μM Aβ42, five hours at 37° C.", "method": "A seed-free Aβ solution was prepared essentially according to the previous report (Naiki H et al., Methods Enzymol (1999) 309: 305-318). Briefly stated, synthetic Aβ40 and Aβ42 were dissolved in a 0.02% ammonium solution at 500 μM and 300 μM, respectively. In order to remove undissolved Aβ aggregates that can act as pre-existing seeds, the prepared solution was centrifuged at 540,000×g for three hours at 4° C. The obtained supernatant was collected and stored at −80° C. until use.\nSeed free Aβ (25 μM) was incubated in 100 μl of TBS comprising 0 μl, 1 μl, or 10 μl of exosome solution at 37° C. 1 μl of exosome solution was collected from culture supernatants of 1×10^6 cells. As described in the prior art document (Naiki H et al., Methods Enzymol (1999)309:305-318), fluorescence intensity of ThT in the mixture was measured using an Appliskan spectrofluorophotometer (Thermo Fisher Scientific). The optimal fluorescence intensities of amyloid fibrils were measured at an excitation wavelength of 446 nm and fluorescent wavelength of 490 nm by using a reaction mixture comprising 5 μM ThT and 50 mM glycine/NaOH with pH of 8.5."}, "[7]": {"test_system": "N2a cells and primary cultured nerve cells", "experiment": "Measurement of exosome release after drug treatment (Western blot of Alix, Tsg101, GM1 in 100,000×g pellets)", "type": "cell-based, murine", "settings": "24 hours in serum-free medium; imipramine 10 μM, GW4869 10 μM, D609 50 μM", "method": "as §1, §2, §3"}, "[8]": {"settings": "in the presence of BV-2 cells in the lower wells, 24 hours"}}, "data": [{"compound": "AV: annexin V, specifically recognizes phosphatidylserine (PS)", "values": [{"measurement": "uptake of exosomes into BV-2 cells or primary cultured microglia", "setting": "[1]", "value": "significantly suppressed"}, {"measurement": "Aβ uptake into microglia", "setting": "[2]", "value": "significantly suppressed"}]}, {"compound": "SMS2 siRNA: Stealth RNAi siRNA (Invitrogen) for SMS2, sense 5′-AUACAUAGUUAUACAGCGAUACAGG-3′ (antisense CCUGUAUCGCUGUAUAACUAUGUAU; commercial Stealth RNAi siRNA, chemistry not given here)", "values": [{"measurement": "exosome release / secretion after siRNA knockdown", "setting": "[3]", "value": "significant increases"}, {"measurement": "ratio of amount of Alix compared with a control", "setting": "[3]", "value": "424.75±45.96", "unit": "%"}, {"measurement": "Aβ in 100,000×g pellets", "setting": "[4]; Western blotting", "value": "detected"}, {"measurement": "levels of released exosomes, estimated by the amounts of Alix and Tsg101", "setting": "[4]", "value": "obviously modulated"}, {"measurement": "Aβ levels in the BV-2 cells", "setting": "[5]; compared with treatment with control RNA", "value": "significantly increased"}, {"measurement": "level of Aβ40 in the culture media", "setting": "[5]; [8]", "value": "significantly decreased"}, {"measurement": "level of Aβ42 in the culture media", "setting": "[5]; [8]", "value": "significantly decreased"}, {"measurement": "extracellular Aβ levels", "setting": "[5]", "value": "unchanged"}, {"measurement": "Aβ fibrillogenesis (ThT fluorescence) by exosomes purified from treated cultures, compared with controls", "setting": "[6]", "value": "increased"}]}, {"compound": "O=C(/C=C/c1ccc(/C=C/C(=O)Nc2ccc(C3=NCCN3)cc2)cc1)Nc1ccc(C2=NCCN2)cc1", "note": "[GW4869]", "values": [{"measurement": "levels of released exosomes (exosomal markers Alix, Tsg101, GM1 in 100,000×g pellets)", "setting": "[7]", "value": "significantly decreased"}, {"measurement": "Aβ fibrillogenesis (ThT fluorescence) by exosomes purified from treated cultures, compared with controls", "setting": "[6]", "value": "significantly reduced"}]}, {"compound": "aSMase siRNA: Stealth RNAi siRNA (Invitrogen) for aSMase, sense 5′-AUUGGUUUCCCUUUAUGAAGGGAGG-3′ (antisense CCUCCCUUCAUAAAGGGAAACCAAU; Commercial Stealth RNAi siRNA, modifications not given here)", "values": [{"measurement": "exosome release / secretion after siRNA knockdown", "setting": "[3]", "value": "did not change"}]}, {"compound": "SMS1 siRNA: Stealth RNAi siRNA (Invitrogen) for SMS1, sense 5′-AUACAUUGUAAUACACCGAUACAGG-3′ (antisense CCUGUAUCGGUGUAUUACAAUGUAU; Commercial Stealth RNAi siRNA, modifications not given here)", "values": [{"measurement": "exosome release / secretion after siRNA knockdown", "setting": "[3]", "value": "significant increases"}, {"measurement": "ratio of amount of Alix compared with a control", "setting": "[3]", "value": "186.02±9.77", "unit": "%"}]}, {"compound": "S=C([S-])OC1CC2CC1C1CCCC21.[K+]", "note": "(stereo not shown) [D609]", "values": [{"measurement": "levels of released exosomes (exosomal markers Alix, Tsg101, GM1 in 100,000×g pellets)", "setting": "[7]", "value": "significant enhancement"}, {"measurement": "Aβ fibrillogenesis (ThT fluorescence) by exosomes purified from treated cultures, compared with controls", "setting": "[6]", "value": "increased"}]}, {"compound": "nSMase1 siRNA: Stealth RNAi siRNA (Invitrogen) for nSMase1, sense 5′-AAUAGAACCACAUCUGCAUUCUUGG-3′ (antisense CCAAGAAUGCAGAUGUGGUUCUAUU; Commercial Stealth RNAi siRNA, modifications not given here)", "values": [{"measurement": "exosome release / secretion after siRNA knockdown", "setting": "[3]", "value": "did not change"}]}, {"compound": "nSMase2 siRNA: Stealth RNAi siRNA (Invitrogen) for nSMase2, sense 5′-AAUCGAUGUAGAUCUUGAUCUGAGG-3′ (antisense CCUCAGAUCAAGAUCUACAUCGAUU; commercial Stealth RNAi siRNA, chemistry not given here)", "values": [{"measurement": "exosome release / secretion after siRNA knockdown", "setting": "[3]", "value": "reduced"}, {"measurement": "levels of released exosomes, estimated by the amounts of Alix and Tsg101", "setting": "[4]", "value": "obviously modulated"}, {"measurement": "extracellular Aβ levels", "setting": "[5]", "value": "unchanged"}, {"measurement": "Aβ fibrillogenesis (ThT fluorescence) by exosomes purified from treated cultures, compared with controls", "setting": "[6]", "value": "significantly reduced"}]}, {"compound": "CN(C)CCCN1c2ccccc2CCc2ccccc21", "note": "[imipramine]", "values": [{"measurement": "levels of released exosomes (exosomal markers Alix, Tsg101, GM1 in 100,000×g pellets)", "setting": "[7]", "value": "did not change"}]}, {"compound": "CCCCCCCCCCCCC/C=C/[C@@H](O)[C@H](CO)NC(=O)CCCCC", "note": "[C6-ceramide, N-hexanoyl-D-erythro-sphingosine]", "values": [{"measurement": "release levels of exosomes", "setting": "[3]; C6-ceramide 50 μM or bacterial SMase 100 μU/ml, 24 hours", "value": "significantly increased"}]}]}
